Legend:
[1] = tested on: 293T cells stably expressing SERCaMP; assay: SERCaMP secretion (GLuc luciferase) assay of ER calcium depletion induced by thapsigargin; format: cell-based, human
Procedure: FIG. 11A-FIG. 11B. SERCaMP secretion is specifically triggered by ER calcium depletion. 293T cells stably expressing (A) SERCaMP or (B) control GLuc-STOP were treated with 0.1 μM TG or DMSO, for varying durations. Luciferase activity was measured in the medium (mean±SD, n=3) and normalized to the respective baseline. **P<0.01 by t-test.
RyR expression was next examined at the protein level. […] Since it has been shown that RyR2 isoform is present in the rabbit kidney cortex and its activity is modulated by phosphorylation of the channel, phosphorylation of RyR2 at Ser2808 was further examined. […] It has been shown that the carboxy-terminal sequence of an ER stress protein MANF (mesencephalic astrocyte-derived neurotrophic factor), ASARTDL (SEQ ID NO: 3), is sufficient to specifically confer ER calcium-depletion-dependent secretion. […] When human embryonic kidney (HEK) 293T cells stably expressing SERCaMP or control GLuc-STOP without the ASARTDL tag were treated with DMSO or 0.1 μM thapsigargin (TG), a SERCA inhibitor causing ER calcium depletion for 6 hours, SERCaMP secretion, as measured by luciferase activity in the cell culture medium, was increased in response to ER calcium depletion induced by TG (see e.g., FIG. 11A and FIG. 11B).

[2] = tested on: Tg-C321R primary podocytes; assay: Annexin V-FITC/PI flow cytometry of early apoptosis; format: cell-based, mouse
Procedure: Apoptotic cell death was measured by FITC Annexin V/PI apoptosis detection kit (BD Biosciences) according to the manufacturer's protocol. […] The untreated- and treated-podocytes were harvested, washed with cold PBS twice, resuspended in binding buffer, and stained with Annexin V-FITC and PI in dark at room temperature for 15 minutes. After incubation, binding buffer was added, and the podocytes were analyzed by flow cytometer Calibur 3 (BD Biosciences). Unstained cells, cells stained with FITC-Annexin V or PI alone were used as controls to set up compensation and quadrants in flow cytometry. The results were analyzed by Cell Quest program.

procaspases 12 and 3 = assay: Western blot of cleaved caspase 12 and caspase 3 in podocyte lysates; format: cell-based, mouse; conditions: Tg-C321R podocytes
Procedure: (§1) Mouse primary podocytes and isolated glomeruli were lysed by RIPA buffer (Cell signaling) containing protease inhibitor cocktail (Sigma-Aldrich) and phosphatase inhibitor tablets (Roche, Indianapolis, Ind.). The protein concentrations of cell and glomerular lysates were determined by Bio-Rad Protein assay (Hercules, Calif.) using BSA as a standard. Denatured proteins were separated on SDS-polyacrylamide gels and then transferred to polyvinylidene difluoride membranes (Thermo Scientific). The membranes were blocked with 5% non-fat milk for 1 h and then incubated overnight with primary antibodies. Following incubation, membranes were washed with 0.1% Tris-buffered saline/Tween buffer and incubated with the appropriate HRP-conjugated secondary antibodies. The proteins were then detected using ECLplus kit (GE, Pittsburgh, Pa.) and visualized in an x-ray developer. To ensure equal protein loading, the same blot was stripped with stripping buffer (25 mM glycine and 1% SDS, pH 2.0) and then incubated with an HRP-conjugated anti-mouse β-actin antibody. Protein band intensities were quantified using Image J software (NIH, Bethesda, Md.).

Lamb2+/- mice = assay: K201 toxicity in control mice (kidney histology, BUN); format: in vivo, mouse; conditions: K201 4 weeks vs vehicle-treated control littermates
Procedure: FIG. 13. […] HE staining of K201 or vehicle-injected kidneys at the end of treatment.
(§2) BUN was measured by using a QuantiChrom™ urea assay kit (DIUR-500) (BioAssay Systems, Hayward, Calif.).
For light microscopy, kidneys were fixed in 4% paraformaldehyde, dehydrated through graded ethanols, embedded in paraffin, sectioned at 4 μm, and stained with Hematoxylin & Eosin (H&E) by standard methods.

Tg-C321R mice = assay: K201 treatment of podocyte ER stress-induced NS mouse model (urinary calpain, albuminuria, BUN); format: in vivo; conditions: for albuminuria: K201 12.5-15 mg/kg i.p.
Procedure: Urinary calpain activity was measured by Calpain-Glo™ Protease Assay (Promega, Madison, Wis.). In brief, urines were incubated with calpain substrate (Succinyl-LLVY-aminoluciferin). Following cleavage of substrate by calpain, the substrate for luciferase (aminoluciferin) was released, allowing the luciferase reaction to occur and luminescence to be detected by Femtomaster FB12 Luminometer. The actual values of raw light units were normalized by urine Cr for each group.
as §2
Mouse urines were collected by manual restraint or using a metabolic cage. The mouse urines were centrifuged at 1800 g for 10 minutes to remove debris before being frozen at −70° C. Urinary Cr concentration was quantified by a QuantiChrom™ creatinine assay kit (DICT-500) (BioAssay Systems) and albuminuria was measured by a QuantiChrom™ BCG albumin assay kit (DIAG-250) (BioAssay Systems).

[3] = tested on: Tg-C321R primary podocytes; assay: Cytosolic calcium levels measured by Fluo-4 AM; format: cell-based, mouse
Procedure: The cytosolic Ca^2+ levels were measured by Fluo-4 AM (Invitrogen). Primary podocytes of the indicated genotypes were plated on 6-well plates at 1×10^5 cells/well and stained with 2.5 μM Fluo-4 AM and 1 mM probenecid in the dark at 37° C. for 30 minutes. Then the cells were washed with PBS and kept in the dark for another 30 minutes to allow cleavage of intracellular AM esters. Fluorescence was measured by flow cytometer Calibur 3 (BD Biosciences, San Jose, Calif.) at the FACS core facility of Washington University School of Medicine. The results were analyzed by Cell Quest. For measuring intracellular Ca^2+ levels in primary podocytes treated with or without […] or MANF, cells were plated on 96-well plates at 0.8×10^4 cells per well and stained with Fluo-4 AM along with probenecid to enable high-throughput readout. Fluorescence was measured at excitation wavelength 485 nm and emission wavelength 528 nm by a fluorescent plate reader Synergy H1 (BioTek, Winooski, Vt.).

primary podocytes = assay: MTT cell viability assay; format: cell-based, mouse; conditions: 1-5 μM of K201
Procedure: The higher apoptotic rates in all groups were most likely due to the effect of DMSO.
Isolated glomeruli from Tg-WT, Tg-C321R, and Lamb2^+/− mice at P27 were plated onto collagen type I-coated culture dishes, and cultured in 5% CO2 at 37° C. in DMEM (Gibco, NY):Ham's F-12 (Lonza, NY) (2:1) that contained 3T3-L1 supernatant, 5% heat-inactivated fetal bovine serum (Gibco), 1% Insulin-Transferrin-Selenium liquid media supplement (Gibco), and 100 U/ml penicillin-streptomycin (Gibco). After 3 days, cell colonies began to sprout around the glomeruli. […] Passage 0 podocytes from the indicated genotypes were used for RNA sequencing, and passages 1 and 2 podocytes for other in vitro studies.

XBP1s and ATF4 = assay: Western blot of XBP1s and ATF4 in podocyte lysates; format: cell-based, mouse; conditions: MANF 5 μg/ml, 24 hours, Tg-C321R podocytes
Procedure: as §1

Umod C147W/+ mice = assay: DOX-induced renal tubular MANF expression in ADTKD mouse model (BUN); format: in vivo; conditions: DOX-induced tubular MANF from 6 to 24 weeks of age, TETMANF/+, P8TA vs Umod C147W/+
Procedure: as §2
Conditional renal tubular-specific MANF transgenic mice have been generated. TET-MANF mice were crossed with renal tubular-specific rtTA (Pax8-rtTA; P8TA) mice to generate bitransgenic TETMANF/+; P8TA mice, which were further bred to Umod C147W mice to generate Umod C147W/+; TETMANF/+; P8TA and Umod C147W/+; P8TA mice. Meanwhile, control Umod^+/+; TETMANF/+; P8TA and Umod^+/+; P8TA littermates were also generated. By administrating DOX, MANF expression was induced in renal tubules of Umod C147W/+; TETMANF/+; P8TA mice and control Umod^+/+; TETMANF/+; P8TA mice starting at 6 weeks of age until 24 weeks of age. Meanwhile, single transgenic mice including Umod C147W/+; P8TA and Umod^+/+; P8TA treated with DOX for the same duration were also included as controls.

CHOP = assay: Western blot of CHOP in podocyte lysates; format: cell-based, mouse; conditions: MANF 5 μg/ml, 24 hours, Tg-C321R podocytes
Procedure: as §1

RyR2 = target: T1, RyR2 (Mus musculus, UniProt E9Q401); assay: Western blot of p-RyR2 (S2808) and RyR in podocyte lysates; format: cell-based; conditions: MANF 5 μg/ml, 24 hours, Tg-C321R podocytes
T1 construct: endogenous in cells; host or cells: mouse primary podocytes from Tg-WT and Tg-C321R mice at P27

[4] = recombinant MANF 24 h, Example 3

In the case of COc1ccc2c(c1)CN(C(=O)CCN1CCC(Cc3ccccc3)CC1)CCS2 [K201, 4-[-3{1-(4-Benzyl)piperidinyl}propionyl]-7-methoxy-2,3,4,5-tetrahydro-1,4-benzothiazepine], the “TG-induced ER calcium depletion (SERCaMP GLuc activity in the medium)” value ([1]; 0.1 μM TG + 1 μM K201, 6 hours) is reported as “abrogate TG-induced ER calcium depletion”, the “early apoptotic rate (Annexin V+/PI- cells)” value ([2]; 5 μM K201, 24 hours, DMSO control 24.73±2.22%) is reported as 15.23±2.84% and the “activation of procaspases 12 and 3” value (procaspases 12 and 3; 5 μM K201, 24 hours) is reported as “abolished”. For the same molecule, the “kidney histology (HE staining)” value (Lamb2+/- mice) was “no abnormality”, the “renal function as indicated by blood urea nitrogen (BUN)” value (Lamb2+/- mice) was “no abnormality” and the albuminuria (Tg-C321R mice; 3 weeks post-injection, vehicle 0.137±0.037) was 0.095±0.029 g/mg Cr. For the same molecule, the albuminuria (Tg-C321R mice; 4 weeks post-injection, vehicle 0.142±0.022) was 0.098±0.016 g/mg Cr, the “Urinary calpain activity/Cr” value (Tg-C321R mice; K201 12.5-15 mg/kg i.p. once daily vs 20% HBC, from 2 weeks to 4 weeks post-treatment) was “dramatically decreased” and the “kidney function as indicated by blood urea nitrogen (BUN)” value (Tg-C321R mice; end of 4 weeks of injection, Tg-C321R mice) was “improved kidney function”. The “podocyte ER-to-cytosol calcium leak (cytosolic calcium, Fluo-4)” value ([3]; 5 μM K201, 24 hours) was “markedly blocked” and the “cell viability (MTT)” value (primary podocytes) was “non-toxic”.

For C/C=C(/C)C(=O)O[C@H]1C(C)=C2[C@H]([C@@H]1OC(=O)CCCCCCC)[C@@](C)(OC(C)=O)C[C@H](OC(=O)CCC)[C@@]1(O)[C@H]2OC(=O)[C@@]1(C)O [thapsigargin], the “SERCaMP secretion (luciferase activity in the cell culture medium)” value ([1]; 0.1 μM thapsigargin vs DMSO, 6 hours) was “increased”.

B1: MANF: Recombinant human MANF from R&D Systems; 18 kDa soluble ER stress inducible secreted protein (protein, UniProt P55145 25-182, looked up)
Mesencephalic …: LRPGDCEVCISYLGRFYQDLKDRDVTFSPATIENELIKFCREARGKENRLCYYIGATDDAATKIINEVSKPLAHHIPVEKICEKLKKKDSQICELKYDKQIDLSTVDLKKLRVKELKKILDDWGETCKGCAEKSDYIRKINELMPKYAPKAASARTDL
In the case of B1, the “XBP1s and ATF4 induction” value (XBP1s and ATF4) is reported as “inhibition”, the “kidney function (BUN levels)” value (Umod C147W/+ mice) is reported as “improved the kidney function” and the “early apoptotic rate (Annexin V+/PI-)” value ([2]; MANF 5 μg/ml, 24 hours, untreated 17.18±0.77%) is reported as 10.09±0.51%. For the same molecule, the “early apoptosis (Annexin V+/PI- podocytes), printed as after treatment” value [2, 4] was 17.27%, the “early apoptosis (Annexin V+/PI- podocytes), printed as before treatment” value [2, 4] was 10.73% and the CHOP induction (CHOP) was “abrogated”. For the same molecule, the “active cleaved caspase 12” value (procaspases 12 and 3; MANF 5 μg/ml, 24 hours) was “suppression”, the “cytosolic calcium levels (Fluo-4)” value ([3]; MANF recombinant protein 5 μg/ml, 24 hours) was “significantly decreased” and the “phosphorylation of ER RyR2 (S2808)” value (RyR2) was “reduced phosphorylation”.
